PMC8073777, “Design, Synthesis, Biological Evaluation and In Silico Studies of Pyrazole-Based NH2-Acyl Oseltamivir Analogues as Potent Neuraminidase Inhibitors” (Pharmaceuticals, 2021)

Molecular target: A/H3N2 influenza NA (Influenza A virus (H3N2), UniProt Q91IQ5)
Type: biochemical, A/H3N2 influenza virus (clinical isolate from Hong Kong)
Conditions: 10 µM

| Structure (SMILES) | Inhibitory rate against A/H3N2 influenza NA |
| --- | --- |
| CCC(CC)O[C@@H]1C=C(C(=O)O)C[C@H](NC(=O)c2cnn(Cc3ccccc3)c2)[C@H]1NC(C)=O [Compound 6a, (3R,4R,5S)-4-acetamido-5-(1-benzyl-1H-pyrazole-4-carboxamido)-3-(pentan-3-yloxy) cyclohex-1-ene-1-carboxylic acid] | 32.02% |
| CCC(CC)O[C@@H]1C=C(C(=O)O)C[C@H](NC(=O)c2cnn(Cc3ccccc3Cl)c2)[C@H]1NC(C)=O [Compound 6b, (3R,4R,5S)-4-acetamido-5-(1-(2-chlorobenzyl)-1H-pyrazole-4-carboxamido)-3-(pentan-3-yloxy) cyclohex-1-ene-1-carboxylic acid] | 18.88% |
| CCC(CC)O[C@@H]1C=C(C(=O)O)C[C@H](NC(=O)c2cnn(Cc3cccc(Cl)c3)c2)[C@H]1NC(C)=O [Compound 6c, (3R,4R,5S)-4-acetamido-5-(1-(3-chlorobenzyl)-1H-pyrazole-4-carboxamido)-3-(pentan-3-yloxy) cyclohex-1-ene-1-carboxylic acid] | 23.88% |
| CCC(CC)O[C@@H]1C=C(C(=O)O)C[C@H](NC(=O)c2cnn(Cc3cccc([N+](=O)[O-])c3)c2)[C@H]1NC(C)=O [Compound 6d, (3R,4R,5S)-4-acetamido-5-(1-(3-nitrobenzyl)-1H-pyrazole-4-carboxamido)-3-(pentan-3-yloxy) cyclohex-1-ene-1-carboxylic acid] | 12.26% |
| CCC(CC)O[C@@H]1C=C(C(=O)O)C[C@H](NC(=O)c2cnn(Cc3cccc(OC)c3)c2)[C@H]1NC(C)=O [Compound 6e, (3R,4R,5S)-4-acetamido-5-(1-(3-methoxybenzyl)-1H-pyrazole-4-carboxamido)-3-(pentan-3-yloxy) cyclohex-1-ene-1-carboxylic acid] | 23.37% |
| CCC(CC)O[C@@H]1C=C(C(=O)O)C[C@H](NC(=O)c2cnn(Cc3ccc(OC)cc3)c2)[C@H]1NC(C)=O [Compound 6f, (3R,4R,5S)-4-acetamido-5-(1-(4-methoxybenzyl)-1H-pyrazole-4-carboxamido)-3-(pentan-3-yloxy) cyclohex-1-ene-1-carboxylic acid] | 26.79% |
| CCC(CC)O[C@@H]1C=C(C(=O)O)C[C@H](NC(=O)c2cnn(Cc3ccc(C(F)(F)F)cc3)c2)[C@H]1NC(C)=O [Compound 6g, (3R,4R,5S)-4-acetamido-3-(pentan-3-yloxy)-5-(1-(4-(trifluoromethyl)benzyl)-1H-pyrazole-4-carboxamido) cyclohex-1-ene-1-carboxylic acid] | 21.72% |
| CCC(CC)O[C@@H]1C=C(C(=O)O)C[C@H](NC(=O)c2cnn(-c3ccccc3C)c2)[C@H]1NC(C)=O [Compound 6h, (3R,4R,5S)-4-acetamido-3-(pentan-3-yloxy)-5-(1-(o-tolyl)-1H-pyrazole-4-carboxamido) cyclohex-1-ene-1-carboxylic acid] | 38.37% |
| CCC(CC)O[C@@H]1C=C(C(=O)O)C[C@H](NC(=O)c2cnn(-c3ccc(C)cc3)c2)[C@H]1NC(C)=O [Compound 6i, (3R,4R,5S)-4-acetamido-3-(pentan-3-yloxy)-5-(1-(p-tolyl)-1H-pyrazole-4-carboxamido) cyclohex-1-ene-1-carboxylic acid] | 52.31% |
| CCC(CC)O[C@@H]1C=C(C(=O)O)C[C@H](NC(=O)c2cnn(-c3ccc(OC)cc3)c2)[C@H]1NC(C)=O [Compound 6j, (3R,4R,5S)-4-acetamido-5-(1-(4-methoxyphenyl)-1H-pyrazole-4-carboxamido)-3-(pentan-3-yloxy) cyclohex-1-ene-1-carboxylic acid] | 34.15% |
| CCC(CC)O[C@@H]1C=C(C(=O)O)C[C@H](NC(=O)c2cnn(-c3ccc(Cl)cc3)c2)[C@H]1NC(C)=O [Compound 6k, (3R,4R,5S)-4-acetamido-5-(1-(4-chlorophenyl)-1H-pyrazole-4-carboxamido)-3-(pentan-3-yloxy) cyclohex-1-ene-1-carboxylic acid] | 25.67% |
| CCC(CC)O[C@@H]1C=C(C(=O)O)C[C@H](NC(=O)c2cc(-c3ccccc3)n[nH]2)[C@H]1NC(C)=O [Compound 12a, (3R,4R,5S)-4-acetamido-3-(pentan-3-yloxy)-5-(3-phenyl-1H-pyrazole-5-carboxamido) cyclohex-1-ene-1-carboxylic acid] | 42.81% |
| CCC(CC)O[C@@H]1C=C(C(=O)O)C[C@H](NC(=O)c2cc(-c3ccc(Cl)cc3)n[nH]2)[C@H]1NC(C)=O [Compound 12b, (3R,4R,5S)-4-acetamido-5-(3-(4-chlorophenyl)-1H-pyrazole-5-carboxamido)-3-(pentan-3-yloxy) cyclohex-1-ene-1-carboxylic acid] | 50.43% |
| CCC(CC)O[C@@H]1C=C(C(=O)O)C[C@H](NC(=O)c2cc(-c3ccc(F)cc3)n[nH]2)[C@H]1NC(C)=O [Compound 12c, (3R,4R,5S)-4-acetamido-5-(3-(4-fluorophenyl)-1H-pyrazole-5-carboxamido)-3-(pentan-3-yloxy) cyclohex-1-ene-1-carboxylic acid] | 56.45% |
| CCC(CC)O[C@@H]1C=C(C(=O)O)C[C@H](NC(=O)c2cc(-c3ccc(C(F)(F)F)cc3)n[nH]2)[C@H]1NC(C)=O [Compound 12d, (3R,4R,5S)-4-acetamido-3-(pentan-3-yloxy)-5-(3-(4-(trifluoromethyl)phenyl)-1H-pyrazole-5-carboxamido) cyclohex-1-ene-1-carboxylic acid] | 46.7% |
| CCC(CC)O[C@@H]1C=C(C(=O)O)C[C@H](NC(=O)c2cc(-c3ccc(OC)cc3)n[nH]2)[C@H]1NC(C)=O [Compound 12e, (3R,4R,5S)-4-acetamido-5-(3-(4-methoxyphenyl)-1H-pyrazole-5-carboxamido)-3-(pentan-3-yloxy) cyclohex-1-ene-1-carboxylic acid] | 42.02% |
| CCC(CC)O[C@@H]1C=C(C(=O)O)C[C@H](NC(=O)c2cc(-c3cccs3)n[nH]2)[C@H]1NC(C)=O [Compound 12f, (3R,4R,5S)-4-acetamido-3-(pentan-3-yloxy)-5-(3-(thiophen-2-yl)-1H-pyrazole-5-carboxamido) cyclohex-1-ene-1-carboxylic acid] | 40.02% |
| CCC(CC)O[C@@H]1C=C(C(=O)O)C[C@H](NC(=O)c2cc(-c3ccc(Cl)cc3)nn2CC2CC2)[C@H]1NC(C)=O [Compound 16a, (3R,4R,5S)-4-acetamido-5-(3-(4-chlorophenyl)-1-(cyclopropylmethyl)-1H-pyrazole-5-carboxamido)-3-(pentan-3-yloxy) cyclohex-1-ene-1-carboxylic acid] | 31.50% |
| CCC(CC)O[C@@H]1C=C(C(=O)O)C[C@H](NC(=O)c2cc(-c3ccc(Cl)cc3)nn2CC2CCC2)[C@H]1NC(C)=O [Compound 16b, (3R,4R,5S)-4-acetamido-5-(3-(4-chlorophenyl)-1-(cyclobutylmethyl)-1H-pyrazole-5-carboxamido)-3-(pentan-3-yloxy) cyclohex-1-ene-1-carboxylic acid] | 39.81% |
